Assay results: US11505533B2, “Metabolically stable N-acylaminooxadiazoles useful as antibacterial agents” (MICROBIOTIX, INC., priority 2017, dated 2022)
≈ marks a conversion by molar mass, not a printed value.

Tested on: E. coli TolC(−)
Test: TolC(−) MIC (NB)
Type: cell-based
Conditions: Escherichia coli, read-out: TolC(−) MIC (μM)(NB)

Structure (SMILES) | MIC
Cc1ccccc1-c1nnc(NC(=O)c2ccc(Oc3ccccc3)nc2)o1 [compound 4498] | 2.21 µM (≈ 0.823 µg/mL)
O=C(Nc1nnc(-c2ccc(N3CCCC3)cc2)o1)N1CCc2ccccc2C1 [compound 5222] | 25 µM (≈ 9.74 µg/mL)
CCOC1CCN(C(=O)Nc2nnc(-c3ccc(F)cc3)o2)CC1 [compound 4993] | 44.5 µM (≈ 14.9 µg/mL)
O=C(Nc1nnc(-c2ccc(F)cc2)o1)N1CCC=CCC1 [compound 4935] | 12.5 µM (≈ 3.78 µg/mL)
O=C(Nc1nnc(-c2ccc(F)cc2)o1)N1CC2CC(C1)O2 [compound 4380] | ≥ 100 µM
Cc1ccccc1-c1nnc(NC(=O)N2CCC(Cl)=C(Cl)C2)o1 [compound 5215] | 1.56 µM (≈ 0.551 µg/mL)
COCC1=CCN(C(=O)Nc2nnc(-c3ccc(F)cc3)o2)CC1 [compound 4843] | 25 µM (≈ 8.31 µg/mL)
O=C(Nc1nnc(-c2ccc(F)cc2)o1)N1CCN(C(=O)c2ccco2)CC1 [compound 4201] | 28.1 µM (≈ 10.8 µg/mL)
O=C(Nc1nnc(C2COc3ccccc3O2)o1)c1ccc(Oc2ccccc2)nc1 (stereo not drawn) [compound 4770] | 4.42 µM (≈ 1.84 µg/mL)
O=C(Nc1nnc(-c2ccc(F)cc2)o1)N1CCC(c2ccccc2)CC1 [compound 5199] | 5.57 µM (≈ 2.04 µg/mL)
CC1CCN(C(=O)Nc2nnc(-c3ccc(F)cc3)o2)CC1 [compound 4684] | 15.8 µM (≈ 4.79 µg/mL)
O=C(Nc1nnc(-c2ccc(F)cc2)o1)N1CCC(F)(F)C1 [compound 4930] | 19.8 µM (≈ 6.18 µg/mL)
O=C(Nc1nnc(-c2ccc(F)cc2)o1)N1CCC2(CC1)COC2 [compound 4739] | 100 µM (≈ 33.2 µg/mL)
Cc1nnc(NC(=O)c2ccc(Oc3ccccc3)nc2)o1 [compound 4468] | ≥ 100 µM
O=C(Nc1nnc(-c2ccc(F)cc2)o1)N1CCc2sccc2C1 [compound 4940] | 3.13 µM (≈ 1.08 µg/mL)
O=C(Nc1nnc(-c2ccc(F)cc2)o1)N1CC2CCC(C1)O2 [compound 4381] | 100 µM (≈ 31.8 µg/mL)
CN1CCCN(C(=O)Nc2nnc(-c3ccc(F)cc3)o2)CC1 [compound 4349] | ≥ 100 µM
O=C(Nc1nnc(-c2ccc(F)cc2)o1)N1CCc2ccccc2CC1 [compound 4936] | 6.25 µM (≈ 2.2 µg/mL)
O=C(Nc1nnc(-c2ccc(F)cc2)o1)N1CCCC(F)(F)CC1 [compound 4776] | 12.5 µM (≈ 4.25 µg/mL)
O=C(Nc1nnc(-c2ccc(F)cc2)o1)N1CC(C(F)F)C2(CC2)C1 (stereo not drawn) [compound 4932] | 17.7 µM (≈ 6.23 µg/mL)
CC(C)OC1CCN(C(=O)Nc2nnc(-c3ccc(F)cc3)o2)CC1 [compound 4994] | 44.5 µM (≈ 15.5 µg/mL)
CC(C)C1CCCN(C(=O)Nc2nnc(-c3ccc(F)cc3)o2)C1 (stereo not drawn) [compound 5212] | 7.02 µM (≈ 2.33 µg/mL)
Cc1cncc(Oc2ccc(C(=O)Nc3nnc(-c4ccc(F)cc4)o3)cc2)n1 [compound 4290] | 11.1 µM (≈ 4.36 µg/mL)
O=C(Nc1nnc(-c2ccc(F)cc2)o1)N1CCC(F)(F)CC1 [compound 4686] | 12.5 µM (≈ 4.08 µg/mL)
O=C(Nc1nnc(-c2ccc(F)cc2)o1)N1CCCc2ccccc2C1 [compound 4777] | 17.7 µM (≈ 6.23 µg/mL)
O=C(Nc1nnc(-c2ccc(F)cc2)o1)N1CCC2(C1)CC2(F)F (stereo not drawn) [compound 4931] | 28.1 µM (≈ 9.49 µg/mL)
CC(=O)N1CCN(C(=O)Nc2nnc(-c3ccc(F)cc3)o2)CC1 [compound 4198] | ≥ 100 µM

Structure (SMILES) | MIC
COC(=O)C1CCN(C(=O)Nc2nnc(-c3ccc(F)cc3)o2)CC1 [compound 4701] | 50 µM (≈ 17.4 µg/mL)
Cc1cc(F)cc(C)c1-c1nnc(NC(=O)N2CCc3ccccc3C2)o1 [compound 5202] | 7.02 µM (≈ 2.57 µg/mL)
O=C(Nc1nnc(-c2ccc(F)cc2)o1)c1cnc(Oc2ccccc2)nc1 [compound 4314] | 6.25 µM (≈ 2.36 µg/mL)
O=C(Nc1nnc(Cc2ccc(F)cc2)o1)c1ccc(Oc2ccccc2)nc1 [compound 4802] | 6.25 µM (≈ 2.44 µg/mL)
CC(C)(C)COc1ccc(C(=O)Nc2nnc(-c3ccc(F)cc3)o2)cc1 [compound 4284] | 70.7 µM (≈ 26.1 µg/mL)
C[C@@H]1CCCN(C(=O)Nc2nnc(-c3ccc(F)cc3)o2)C1 [compound 5200] | 12.5 µM (≈ 3.8 µg/mL)
CC1=C(C)CN(C(=O)Nc2nnc(-c3ccc(F)cc3)o2)CC1 [compound 4738] | 7 µM (≈ 2.21 µg/mL)
COCCN1[C@H](C)CN(C(=O)Nc2nnc(-c3ccc(F)cc3)o2)C[C@@H]1C [compound 4406] | 50 µM (≈ 18.9 µg/mL)
O=C(Nc1nnc(-c2ccc(F)cc2)o1)N1CCC2CCCCC2C1 (stereo not drawn) [compound 4698] | 8.84 µM (≈ 3.04 µg/mL)
Cc1ccccc1-c1nnc(NC(=O)N2CCc3ccccc3C2)o1 [compound 5214] | 7.02 µM (≈ 2.35 µg/mL)
Cc1cc(F)cc(C)c1-c1nnc(NC(=O)N2CC=C(C(F)(F)F)CC2)o1 [compound 5204] | 4.96 µM (≈ 1.91 µg/mL)
CN1CCN(C(=O)Nc2nnc(-c3ccc(F)cc3)o2)CC1=O [compound 4351] | ≥ 100 µM
CCCC1CCN(C(=O)Nc2nnc(-c3ccc(F)cc3)o2)CC1 [compound 4934] | 6.25 µM (≈ 2.08 µg/mL)
O=C(Nc1nnc(-c2ccc3c(c2)CCC3)o1)N1CC=C(C(F)(F)F)CC1 [compound 5155] | 1.97 µM (≈ 0.745 µg/mL)
O=C(Nc1nnc(-c2ccc(F)cc2)o1)c1ccc(Oc2ccccc2)cn1 [compound 4258] | 35.4 µM (≈ 13.3 µg/mL)
CC1CCCN(C(=O)Nc2nnc(-c3ccc(F)cc3)o2)C1 (stereo not drawn) [compound 4767] | 11.1 µM (≈ 3.38 µg/mL)
CC1(C)CCCN(C(=O)Nc2nnc(-c3ccc(F)cc3)o2)CC1 [compound 4922] | 12.5 µM (≈ 4.15 µg/mL)
Cc1cc(F)cc(C)c1-c1nnc(NC(=O)N2CCC(Cl)=C(Cl)C2)o1 [compound 5203] | 0.781 µM (≈ 0.301 µg/mL)
CC1CC(C)CN(C(=O)Nc2nnc(-c3ccc(F)cc3)o2)C1 (stereo not drawn) [compound 4768] | 6.25 µM (≈ 1.99 µg/mL)
O=C(Nc1nnc(-c2ccc(F)cc2)o1)N1CCCC(O)C1 (stereo not drawn) [compound 5201] | > 100 µM
O=C(Nc1nnc(-c2ccc(F)cc2)o1)N1CCCC1 [compound 4346] | 100 µM (≈ 27.6 µg/mL)
O=C1CN(C(=O)Nc2nnc(-c3ccc(F)cc3)o2)CCN1 [compound 4350] | ≥ 100 µM
CC(C)(C)C1CCN(C(=O)Nc2nnc(-c3ccc(F)cc3)o2)CC1 [compound 4938] | 4.96 µM (≈ 1.72 µg/mL)
O=C(Nc1nnc(C2CCC2)o1)c1ccc(Oc2ccccc2)nc1 [compound 4469] | 12.5 µM (≈ 4.2 µg/mL)
COC(=O)c1ccc(OC2CCN(C(=O)Nc3nnc(-c4ccc(F)cc4)o3)CC2)cc1 [compound 4778] | 19.8 µM (≈ 8.74 µg/mL)
O=C(Nc1nnc(-c2ccc(F)cc2)o1)N1CCC2(CCCC2)CC1 [compound 4939] | 6.25 µM (≈ 2.15 µg/mL)
O=C(Nc1nnc(-c2ccc(F)cc2)o1)N1CCN2CCCCC2C1 (stereo not drawn) [compound 4199] | ≥ 100 µM

Structure (SMILES) | MIC
O=C(Nc1nnc(-c2ccc(F)cc2)o1)N1CCC(N2CCCCC2)CC1 [compound 4702] | > 100 µM
CC(C)(C)C1CCCN(C(=O)Nc2nnc(-c3ccc(F)cc3)o2)CC1 (stereo not drawn) [compound 4937] | 11.1 µM (≈ 4 µg/mL)
CC(C)(C)OC1CCN(C(=O)Nc2nnc(-c3ccc(F)cc3)o2)CC1 [compound 4995] | 25 µM (≈ 9.06 µg/mL)
O=C(Nc1nnc(C2COc3ccccc3O2)o1)c1ccc(OC2CCCCC2)nc1 (stereo not drawn) [compound 4926] | 1.56 µM (≈ 0.659 µg/mL)
O=C(Nc1nnc(-c2ccc(F)cc2)o1)N1CCC(C2COC2)CC1 [compound 4740] | 100 µM (≈ 34.6 µg/mL)
CC1(C)CCN(C(=O)Nc2nnc(-c3ccc(F)cc3)o2)CC1 [compound 4685] | 12.5 µM (≈ 3.98 µg/mL)
O=C(Nc1nnc(-c2ccc(F)cc2)o1)N1CCCCC1 [compound 4699] | 25 µM (≈ 7.26 µg/mL)
COC(=O)c1ccc(CC2CCN(C(=O)Nc3nnc(-c4ccc(F)cc4)o3)CC2)cc1 [compound 4779] | 12.5 µM (≈ 5.48 µg/mL)
O=C(Nc1nnc(-c2ccc(N3CCCC3)cc2)o1)N1CC=C(C(F)(F)F)CC1 [compound 5223] | 11.1 µM (≈ 4.54 µg/mL)
COc1cc2c(cc1OC)CN(C(=O)Nc1nnc(-c3ccc(F)cc3)o1)CC2 [compound 4333] | 12.5 µM (≈ 4.98 µg/mL)
CCC1CCN(C(=O)Nc2nnc(-c3ccc(F)cc3)o2)CC1 [compound 4933] | 6.25 µM (≈ 1.99 µg/mL)
O=C(Nc1nnc(-c2ccc(F)cc2)o1)N1CCCCCC1 [compound 4700] | 15.8 µM (≈ 4.79 µg/mL)
O=C(Nc1nnc(C2CCCCC2)o1)N1CC=C(C(F)(F)F)CC1 [compound 4806] | 12.5 µM (≈ 4.3 µg/mL)
O=C(Nc1nnc(-c2ccc3c(c2)CCC3)o1)N1CCC(Cl)=C(Cl)C1 [compound 5154] | 1.75 µM (≈ 0.664 µg/mL)
O=C(Nc1nnc(-c2ccc(F)cc2)o1)N1CCOCC1 [compound 4697] | 100 µM (≈ 29.2 µg/mL)
CC1=CCN(C(=O)Nc2nnc(-c3c(C)cc(F)cc3C)o2)CC1 [compound 5216] | 12.5 µM (≈ 4.13 µg/mL)
O=C(Nc1nnc(-c2ccc(F)cc2)o1)N1CCCC2CCCCC21 (stereo not drawn) [compound 4200] | 50 µM (≈ 17.2 µg/mL)
O=C(Nc1nnc(-c2ccc(F)cc2)o1)N1CCC(O)CC1 [compound 4734] | 100 µM (≈ 30.6 µg/mL)
CC1=CCN(C(=O)Nc2nnc(C3CCCCC3)o2)CC1 [compound 4805] | 25 µM (≈ 7.26 µg/mL)
O=C(Nc1nnc(C2CCCCC2)o1)c1ccc(OC2CCCCC2)nc1 [compound 4925] | 1.56 µM (≈ 0.578 µg/mL)
O=C(Nc1nnc(-c2ccc(F)cc2)o1)N1CCC(Nc2ccccc2)CC1 [compound 4741] | 11.1 µM (≈ 4.23 µg/mL)
Cc1nc2c(s1)CN(C(=O)Nc1nnc(-c3ccc(F)cc3)o1)C2 [compound 4464] | ≥ 100 µM
O=C(Nc1nnc(-c2ccc(F)cc2)o1)N1Cc2ncsc2C1 [compound 4497] | ≥ 100 µM
O=C(Nc1nnc(-c2ccc(F)cc2)o1)N1CCC(C(F)(F)F)C1 (stereo not drawn) [compound 4735] | 22.3 µM (≈ 7.67 µg/mL)
CC(C)(C)OC(=O)N1CCC(Oc2ccc(C(=O)Nc3nnc(-c4ccc(F)cc4)o3)cc2)CC1 [compound 4289] | 3.51 µM (≈ 1.69 µg/mL)

Tested on: not listed separately
Test: Aqueous solubility, nephelometry
Conditions: water, kinetic from dmso stock

Structure (SMILES) | solubility
CC(C)(C)COc1ccc(C(=O)Nc2nnc(-c3ccc(F)cc3)o2)cc1 [compound 4284] | 3.12 µM (≈ 1.15 µg/mL)

Tested on: not listed separately
Test: Mammalian cell cytotoxicity
Conditions: not given

Structure (SMILES) | CC50
Cc1ccccc1-c1nnc(NC(=O)c2ccc(Oc3ccccc3)nc2)o1 [compound 4498] | > 100 µM
